Data as given in patent US4798905A, “Sulphenylated carbamic acid esters, a process for their preparation and their use” (Bayer Aktiengesellschaft, priority 1984, dated 1989).
In brackets after ≈: the same amount, converted by molar mass.

What was measured:
[1] = test system: Pyrenophora teres; test: Pyrenophora teres test (barley)/protective; details: protective, 0.025 % by weight in the spray liquor, 7 days after inoculation
Description: Solvent: 100 parts by weight of dimethylformamide
Emulsifier: 0.25 part by weight of alkylaryl polyglycol ether
After the spray coating has dried on, the plants are sprayed with a conidia suspension of Pyrenophora teres. The plants then remain in an incubation cabin at 20° C. and 100% relative atmospheric humidity for 48 hours.
The plants are placed in a greenhouse at a temperature of about 20° C. and a relative atmospheric humidity of about 80%.
(§2) Evaluation is carried out 7 days after the inoculation.

[2] = test system: Drechslera graminea; test: Drechslera graminea test (barley)/seed treatment (syn. Helminthosporium gramineum); assay type: in vivo; details: seed treatment, about 3 weeks after sowing, undressed 29.7
[3] = test system: Pyricularia oryzae; assay type: in vivo; details: rice, protective; active compound concentration 0.025 %; 4 days after inoculation
[4] = test system: Aspergillus niger; test: Minimum inhibitory concentration (MIC) in agar, Aspergillus niger; assay type: cell-based; details: 336 h, 28° C., two weeks
Description: (§1) Active compounds according to the invention are added in concentrations of 0.1 mg/l to 5,000 mg/l to an agar prepared from bierwort and peptone. After being kept at 28° C. and 60 to 70% relative atmospheric humidity for two weeks, the MIC is determined. The MIC is the lowest concentration of active compound at which no growth at all by the species of microbe used takes place, and is shown in the following Table I.

[5] = test system: Chaetomium globosum; test: Minimum inhibitory concentration (MIC) in agar, Chaetomium globosum; assay type: cell-based; details: 336 h, 28° C., two weeks
Description: as §1

[6] = test system: Penicillium glaucum; test: Minimum inhibitory concentration (MIC) in agar, Penicillium glaucum; assay type: cell-based; details: 336 h, 28° C., two weeks
Description: as §1

[7] = test system: Alternaria tenuis; test: Minimum inhibitory concentration (MIC) in agar, Alternaria tenuis; assay type: cell-based; details: Alternaria alternata, 336 h, 28° C., two weeks
Description: as §1

[8] = test system: Aureobasidium pullulans; test: Minimum inhibitory concentration (MIC) in agar, Aureobasidium pullulans; assay type: cell-based; details: 336 h, 28° C., two weeks
Description: as §1

[9] = test system: Coniophora puteana; test: Minimum inhibitory concentration (MIC) in agar, Coniophora puteana; assay type: cell-based; details: 336 h, 28° C., two weeks
Description: as §1

[10] = test system: Lentinus tigrinus; test: Minimum inhibitory concentration (MIC) in agar, Lentinus tigrinus; assay type: cell-based; details: 336 h, 28° C., two weeks
Description: as §1

[11] = test system: Polyporus versicolor; test: Minimum inhibitory concentration (MIC) in agar, Polyporus versicolor; assay type: cell-based; details: Trametes versicolor, 336 h, 28° C., two weeks
Description: as §1

[12] = test system: Sclerophoma pityophila; test: Minimum inhibitory concentration (MIC) in agar, Sclerophoma pityophila; assay type: cell-based; details: Sydowia polyspora, 336 h, 28° C., two weeks
Description: as §1

[13] = test system: Plasmopara viticola; test: Plasmopara test (vines)/protective; details: protective, 7 days after inoculation
Description: Solvent: 4.7 parts by weight of acetone
Emulsifier: 0.3 part by weight of alkylaryl polyglycol ether
After the spray coating has dried on, the plants are inoculated with an aqueous spore suspension of Plasmopara viticola and then remain in a humidity chamber at 20° to 22° C. and 100% relative atmospheric humidity for 1 day. The plants are then placed in a greenhouse at 22° C. and about 80% atmospheric humidity for 5 days. The plants are then moistened and placed in a humidity chamber for 1 day.
as §2

SMILES: CCOc1ccc(N(SC(F)(Cl)Cl)C(=O)OC)cc1
- Disease infestation in % of the untreated control [1]: 29.4%

SMILES: COC(=O)N(SC(F)(Cl)Cl)c1cc(Cl)c(OC)c(Cl)c1
- Disease infestation in % of the untreated control [1]: 25.0%

SMILES: COc1c(Cl)cc(N(SC(F)(Cl)Cl)C(=O)OC(C)C)cc1Cl
- Disease infestation in % of the untreated control [1]: 25.0%

SMILES: COC(=O)N(SC(F)(Cl)Cl)c1ccc(OC)c(OC)c1
- Disease infestation in % of the untreated control [1]: 0.0%

SMILES: COc1ccc(N(SC(F)(Cl)Cl)C(=O)OC(C)C)cc1OC
- Disease infestation in % of the untreated control [1]: 25.0%

SMILES: O=C(OCC(Cl)(Cl)Cl)N(SC(F)(Cl)Cl)c1ccc(Cl)cc1
- Disease infestation in % of the untreated control [1]: 33.7%

SMILES: COC(=O)N(SC(F)(Cl)Cl)c1ccccc1
- Diseased plants in % of the total plants emerged ([2]; 500 mg/kg of seed): 3.1%

SMILES: COCCOC(=O)N(SC(F)(Cl)Cl)c1ccccc1
- Disease infestation in % of the untreated control [3]: 30%

SMILES: O=C(OCc1ccc(Cl)c(Cl)c1)N(SC(F)(Cl)Cl)c1ccccc1
- Disease infestation in % of the untreated control [3]: 10%

SMILES: COC(=O)N(SC(F)(Cl)Cl)c1ccc(Cl)cc1 [Example 1]
- MIC [4]: < 20 µg/mL
- MIC [5]: < 20 µg/mL
- MIC [6]: < 20 µg/mL

SMILES: COC(=O)N(SC(F)(Cl)Cl)c1cccc(Cl)c1 [Example 9]
- MIC [4]: < 20 µg/mL
- MIC [5]: < 20 µg/mL
- MIC [6]: < 20 µg/mL

SMILES: COC(=O)N(SC(F)(Cl)Cl)c1cccc(Cl)c1Cl [Example 14]
- MIC [4]: < 20 µg/mL
- MIC [5]: < 20 µg/mL
- MIC [6]: < 20 µg/mL

SMILES: COC(=O)N(SC(F)(Cl)Cl)c1ccc(Cl)cc1Cl [Example 16]
- MIC [4]: < 20 µg/mL
- MIC [5]: < 20 µg/mL
- MIC [6]: < 20 µg/mL

SMILES: COC(=O)N(SC(F)(Cl)Cl)c1ccc(Cl)c(Cl)c1 [Example 18]
- MIC [4]: 35 µg/mL (≈ 99.1 µM)
- MIC [5]: < 20 µg/mL
- MIC [6]: < 20 µg/mL

SMILES: CCOC(=O)N(SC(F)(Cl)Cl)c1cc(Cl)cc(Cl)c1 [Example 23]
- MIC [7]: 5 µg/mL (≈ 13.6 µM)
- MIC [4]: 35 µg/mL (≈ 95.4 µM)
- MIC [8]: 3.5 µg/mL (≈ 9.54 µM)
- MIC [5]: 10 µg/mL (≈ 27.2 µM)
- MIC [9]: 1 µg/mL (≈ 2.72 µM)
- MIC [10]: 1 µg/mL (≈ 2.72 µM)
- MIC [6]: 7.5 µg/mL (≈ 20.4 µM)
- MIC [11]: 2 µg/mL (≈ 5.45 µM)
- MIC [12]: 1.5 µg/mL (≈ 4.09 µM)

SMILES: COC(=O)N(SC(F)(Cl)Cl)c1ccc(Cl)cc1C [Example 29]
- MIC [4]: < 20 µg/mL
- MIC [5]: < 20 µg/mL
- MIC [6]: < 20 µg/mL

SMILES: COC(=O)N(SC(F)(Cl)Cl)c1ccc(C)c(Cl)c1 [Example 31]
- MIC [4]: < 20 µg/mL
- MIC [5]: < 20 µg/mL
- MIC [6]: < 20 µg/mL

SMILES: COC(=O)N(SC(Cl)(Cl)Cl)c1ccccc1 [Example 41]
- MIC [7]: 0.5 µg/mL (≈ 1.66 µM)
- MIC [4]: 5 µg/mL (≈ 16.6 µM)
- MIC [8]: 1.5 µg/mL (≈ 4.99 µM)
- MIC [5]: 2 µg/mL (≈ 6.65 µM)
- MIC [9]: 0.1 µg/mL (≈ 0.333 µM)
- MIC [10]: 0.5 µg/mL (≈ 1.66 µM)
- MIC [6]: 20 µg/mL (≈ 66.5 µM)
- MIC [11]: 1.5 µg/mL (≈ 4.99 µM)
- MIC [12]: 1 µg/mL (≈ 3.33 µM)

SMILES: CN(C)S(=O)(=O)N(SC(F)(Cl)Cl)c1ccccc1 [drawing 10, reference compound]
- Disease infestation in % of the untreated control [1]: 72.5%

SMILES: COC(=O)N(SC(F)(Cl)Cl)c1ccc(C)c(Cl)c1 [drawing 11]
- Disease infestation in % of the untreated control [1]: 39.4%

SMILES: COC(=O)N(SC(F)(Cl)Cl)c1ccc(Cl)cc1Cl [drawing 12]
- Disease infestation in % of the untreated control [1]: 37.7%

SMILES: COC(=O)N(SC(F)(Cl)Cl)c1ccc(Cl)cc1C [drawing 13]
- Disease infestation in % of the untreated control [1]: 31.3%

SMILES: COC(=O)N(SC(F)(Cl)Cl)c1cccc(C(F)(F)F)c1 [drawing 14]
- Disease infestation in % of the untreated control [1]: 30.3%

SMILES: COC(=O)N(SC(F)(Cl)Cl)c1cc(Cl)cc(Cl)c1 [drawing 15]
- Disease infestation in % of the untreated control [1]: 30.3%

SMILES: COC(=O)N(SC(F)(Cl)Cl)c1cccc(Cl)c1 [drawing 16]
- Disease infestation in % of the untreated control [1]: 20.3%

SMILES: COC(=O)N(SC(F)(Cl)Cl)c1ccc(C(F)(F)F)c(Cl)c1 [drawing 17]
- Disease infestation in % of the untreated control [1]: 20.3%

SMILES: COC(=O)N(SC(Cl)(Cl)Cl)c1ccccc1 [drawing 18]
- Disease infestation in % of the untreated control [1]: 20.3%

SMILES: COC(=O)N(SC(F)(Cl)Cl)c1ccc(Cl)c(Cl)c1 [drawing 25]
- Disease infestation in % of the untreated control [1]: 14.5%

SMILES: COC(=O)N(SC(F)(Cl)Cl)c1ccc(Cl)cc1 [drawing 26]
- Disease infestation in % of the untreated control [1]: 37.7%

SMILES: CN(C)S(=O)(=O)N(SC(F)(Cl)Cl)c1ccccc1 [drawing 27, reference compound]
- Diseased plants in % of the total plants emerged ([2]; 600 mg/kg of seed): 23.9%

SMILES: COC(=O)N(SC(F)(Cl)Cl)c1ccc(C)c(Cl)c1 [drawing 28]
- Diseased plants in % of the total plants emerged ([2]; 500 mg/kg of seed): 3.2%

SMILES: COC(=O)N(SC(F)(Cl)Cl)c1ccc(Cl)cc1C [drawing 29]
- Diseased plants in % of the total plants emerged ([2]; 500 mg/kg of seed): 0.0%

SMILES: COC(=O)N(SC(F)(Cl)Cl)c1cccc(C(F)(F)F)c1 [drawing 30]
- Diseased plants in % of the total plants emerged ([2]; 500 mg/kg of seed): 0.0%

SMILES: COC(=O)N(SC(F)(Cl)Cl)c1cc(Cl)cc(Cl)c1 [drawing 31]
- Diseased plants in % of the total plants emerged ([2]; 500 mg/kg of seed): 0.0%

SMILES: COC(=O)N(SC(F)(Cl)Cl)c1ccc(C(F)(F)F)c(Cl)c1 [drawing 32]
- Diseased plants in % of the total plants emerged ([2]; 500 mg/kg of seed): 1.0%

SMILES: O=C(OCc1ccccc1)N(SC(F)(Cl)Cl)c1ccccc1 [drawing 36]
- Disease infestation in % of the untreated control [3]: 0%

SMILES: O=C(OCc1ccccc1)N(SC(F)(Cl)Cl)c1ccccc1 [drawing 39]
- Infestation in % ([13]; active compound concentration 1 ppm): 47%
- Infestation in % ([13]; active compound concentration 2 ppm): 24%
